Reference: patent EP1849784A1, “Indoline-substituted pyrazoline compounds, their preparation and use as medicaments” (LABORATORIOS DEL DR. ESTEVE, S.A., priority 2006, dated 2007)

Assays:
cannabinoid receptors = test: Mouse tetrad model, antagonistic effect against Win 55212-2; type: in vivo, Male NMRI mice; settings: for Antagonistic Effect in (%): against Win 55212-2 (1.25 mg/kg intravenous), substance injected 5 minutes before, tetrad parameter not specified; for Antagonism (%): summary table 1
Source text: Substances with affinity for cannabinoid receptors are known to produce a wide range of pharmacological effects. It is also known that intravenous administration of a substance with affinity for cannabinoid receptors in mice produces analgesia , hypothermia, sedation and catalepsy. Individually, none of these effects can be considered as proof that a tested substance has affinity for cannabinoid-receptors, since all of these effects are common for various classes of centrally active agents. However, substances, which show all of these effects, i.e. substances that are active in this so-called tetrad model are considered to have affinity for the cannabinoid receptors. It has further been shown that cannabinoid receptor antagonists are higly effective in blocking the effects of a cannabinoid agonist in the mouse tetrad model.
The tetrad model is described, for example, in the publication of A. C. Howlett et al, International Union of Pharmacology XXVII. Classification of Cannabinoid Receptors, Pharmacol Rev 54,161-202, 2002 and David R. Compton et al., "In-vivo Characterization of a Specific Cannabinoid Receptor Antagonist (SR141716A) :Inhibition of Tetrahydrocannbinol- induced Responses and Apparent Agonist Activity", J. Pharmacol. Exp. Ther. 277 , 2, 586-594, 1996. The corresponding parts of the description are hereby incorporated by reference.
Male NMRI mice with a weight of 20-30 g (Harlan, Barcelona, Spain) are used in all of the following experiments.
Before testing in the behavioral procedures given below, mice are acclimatized to the experimental setting. Pre-Treatment control values are determined for analgesia hot plate latency (in seconds), rectal temperature, sedation and catalepsy.
In order to determine the agonistic activty of the substance to be tested, the mice are injected intravenously with the substance to be tested or the vehicle alone. 15 minutes after injection, latency in hot plate analgesia is measured. Rectal temperature, sedation and catalepsy are measured 20 minutes after injection.
In order to determine the antagonistic activity the identical procedure is used as for the determination of the agonistic effects, but with the difference that the substance to be evaluated for its antagonistic activity is injectected 5 minutes before the intravenous injection of 1.25 mg/kg Win-55,212 a known cannabinoid-receptor agonist.
The hot plate analgesia is determined according to the method described in Woolfe D. et al. "The evaluation of analgesic action of pethidine hydrochloride (Demerol)", J. Pharmacol. Exp. Ther. 80, 300-307,1944. The respective description is hereby incorporated by reference and forms part of the present disclosure.
The mice are placed on a hot plate (Harvard Analgesimeter) at 55 ± 0.5 °C until they show a painful sensation by licking their paws or jumping and the time for these sensations to occur is recorded. This reading is considered the basal value (B). The maximum time limit the mice are allowed to remain on the hot plate in absence of any painful response is 40 seconds in order to prevent skin damage. This period is called the cut-off time (PC).
Fifteen minuts after the administration of the substance to be tested, the mice are again placed on the hot plate and the afore described procedure is repeated. This period is called the post-treatment reading (PT).
The degree of analgesia is calculated from the formula: % MPE of Analgesia = (PT-B)/(PC-B) × 100 [formula] MPE = Maximum possible effect.
Sedation and ataxia is determined according to the method described in Desmet L. K. C. et al. "Anticonvulsive properties of Cinarizine and Flunarizine in Rats and Mice", Arzneim. -Forsch. (Frug Res) 25, 9, 1975. The respective description is hereby incorporated by reference and forms part of the present disclosure.
The chosen scoring system is • 0: no ataxia; • 1: doubful; • 2: obvious calmness and quiet; • 3 pronounced ataxia; prior to as well as after treatment. […]

CB1-Receptor = biological target: T1, CB1-Receptor (Homo sapiens, UniProt P21554); test: In-vitro determination of affinity to CB1-Receptor (radioligand binding); settings: transfected human CB1 receptors; radioligand [^3H]-CP55940; read-out: CB1-Receptor Radiologand:[^3H]-CP55940 IC50
T1 construct: purchased Receptor Biology, Inc
Method: The in-vitro determination of the affinity of the inventive quaternary ammonium salts of substituted pyrazoline compounds to CB1/CB2Rezeptors is carried out as described in the publication of Ruth A. Ross, Heather C. Brockie et al., "Agonist-inverse agonist characterization at CB1 and CB2 cannabinoid receptors of L-759633, L759656 and AM630", British Journal of Pharmacology, 126, 665-672, (1999), whereby the transfected human CB1 and CB2 receptors of Receptor Biology, Inc. are used. The radioligand used for both receptors is [^3H]-CP55940. The respective parts of the description are hereby incorporated by reference and forms part of the present disclosure.

T1 sequence (P21554 whole entry): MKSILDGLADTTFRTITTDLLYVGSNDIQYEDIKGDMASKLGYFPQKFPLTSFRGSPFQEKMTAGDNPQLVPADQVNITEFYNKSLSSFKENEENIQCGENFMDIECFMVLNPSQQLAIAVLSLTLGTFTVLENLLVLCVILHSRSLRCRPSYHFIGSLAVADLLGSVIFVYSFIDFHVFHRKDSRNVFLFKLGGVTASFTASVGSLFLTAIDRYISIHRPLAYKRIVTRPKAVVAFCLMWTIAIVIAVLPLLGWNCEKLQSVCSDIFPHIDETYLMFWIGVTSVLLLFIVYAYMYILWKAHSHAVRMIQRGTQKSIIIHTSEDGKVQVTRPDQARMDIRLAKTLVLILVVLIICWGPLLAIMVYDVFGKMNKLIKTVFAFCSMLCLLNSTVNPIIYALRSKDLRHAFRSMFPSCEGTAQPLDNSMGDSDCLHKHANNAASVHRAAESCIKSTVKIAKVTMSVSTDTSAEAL

Compound | Antagonistic Effect in (%) (cannabinoid receptors) | Antagonism (%) (cannabinoid receptors) | IC50 (CB1-Receptor) [µM]
CC1Cc2ccccc2N1NC(=O)C1=NN(c2ccc(Cl)cc2Cl)C(c2ccc(Cl)cc2)C1 (stereo not shown) [Example 1, 5-(4-chlorophenyl)-1-(2,4-dichlorophenyl)-N-(2-methylindolin-1-yl)-4,5-dihydro-1H-pyrazole-3-carboxamide] | 33 | 33 | 
O=C(NN1CCc2ccccc21)C1=NN(c2ccc(Cl)cc2Cl)C(c2ccc(Cl)cc2)C1 (stereo not shown) [Example 2, 5-(4-chlorophenyl)-1-(2,4-dichlorophenyl)-N-(indolin-1-yl)-4,5-dihydro-1H-pyrazole-3-carboxamide] | 65±15 | 65 ± 15 | 0.1
O=C(NN1CCc2ccccc21)C1=NN(c2ccc(Cl)cc2Cl)C(c2ccc(Br)cc2)C1 (stereo not shown) [Example 6, 5-(4-bromophenyl)-1-(2,4-dichlorophenyl)-N-(indolin-1-yl)-4,5-dihydro-1H-pyrazole-3-carboxamide] | 88 ± 10 | 88 ± 10 | 
